# Laboratory results: ChEMBL document CHEMBL1142534, “Design, synthesis, biological evaluation and pharmacokinetics of bis(hydroxyphenyl) substituted azoles, thiophenes, benzenes, and aza-benzenes as potent and selective nonsteroidal inhibitors of 17beta-hydroxysteroid dehydrogenase type 1 (17beta-HSD1)” (J Med Chem, 2008)
# The source made the active and inactive calls. No cut-off for these calls is given here.
# How the values were obtained:
# [1] = target: T1, 17-beta-hydroxysteroid dehydrogenase type 1 (Homo sapiens) (UniProt P14061); test: (§1) Inhibition of human placental cytosolic 17beta-HSD1
# T1 sequence (whole entry): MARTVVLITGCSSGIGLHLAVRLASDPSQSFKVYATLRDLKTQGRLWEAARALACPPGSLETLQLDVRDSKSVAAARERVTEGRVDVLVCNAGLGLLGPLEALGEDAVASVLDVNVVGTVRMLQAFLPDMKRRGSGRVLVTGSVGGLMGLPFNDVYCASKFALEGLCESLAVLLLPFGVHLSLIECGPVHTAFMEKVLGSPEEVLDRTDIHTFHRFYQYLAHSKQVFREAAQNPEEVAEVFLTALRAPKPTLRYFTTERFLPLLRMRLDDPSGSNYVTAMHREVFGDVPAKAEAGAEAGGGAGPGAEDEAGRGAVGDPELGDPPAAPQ
# [2] = target: T2, 17-beta-hydroxysteroid dehydrogenase type 1 (Homo sapiens, UniProt P14061); test: as §1
# T2 sequence (P14061 whole entry): T1 sequence (whole entry)
# [3] = target: Estrogen receptor beta (Homo sapiens) (UniProt Q92731); test: Displacement of [2,4,6,7-3H]17beta-estradiol from human recombinant ERbeta receptor relative to 17-beta-estradiol
# Sequence of Estrogen receptor beta (Homo sapiens) (Q92731 whole entry): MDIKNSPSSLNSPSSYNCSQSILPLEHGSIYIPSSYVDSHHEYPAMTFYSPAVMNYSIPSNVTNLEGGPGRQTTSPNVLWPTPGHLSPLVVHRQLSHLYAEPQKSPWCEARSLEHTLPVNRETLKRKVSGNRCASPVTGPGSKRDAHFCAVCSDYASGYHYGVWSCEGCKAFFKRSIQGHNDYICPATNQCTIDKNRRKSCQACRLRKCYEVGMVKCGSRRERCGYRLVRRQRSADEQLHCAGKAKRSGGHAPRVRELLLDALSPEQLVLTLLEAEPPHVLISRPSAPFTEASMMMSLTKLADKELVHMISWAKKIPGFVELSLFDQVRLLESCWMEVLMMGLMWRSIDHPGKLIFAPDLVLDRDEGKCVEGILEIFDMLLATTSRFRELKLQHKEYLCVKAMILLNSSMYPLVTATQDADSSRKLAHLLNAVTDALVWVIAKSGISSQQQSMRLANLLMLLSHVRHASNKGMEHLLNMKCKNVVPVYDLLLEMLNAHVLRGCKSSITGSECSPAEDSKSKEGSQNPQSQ
# [4] = target: T3, Estrogen receptor (Homo sapiens) (UniProt P03372); test: Displacement of [2,4,6,7-3H]17beta-estradiol from human recombinant ERalpha receptor relative to 17-beta-estradiol
# T3 sequence (whole entry): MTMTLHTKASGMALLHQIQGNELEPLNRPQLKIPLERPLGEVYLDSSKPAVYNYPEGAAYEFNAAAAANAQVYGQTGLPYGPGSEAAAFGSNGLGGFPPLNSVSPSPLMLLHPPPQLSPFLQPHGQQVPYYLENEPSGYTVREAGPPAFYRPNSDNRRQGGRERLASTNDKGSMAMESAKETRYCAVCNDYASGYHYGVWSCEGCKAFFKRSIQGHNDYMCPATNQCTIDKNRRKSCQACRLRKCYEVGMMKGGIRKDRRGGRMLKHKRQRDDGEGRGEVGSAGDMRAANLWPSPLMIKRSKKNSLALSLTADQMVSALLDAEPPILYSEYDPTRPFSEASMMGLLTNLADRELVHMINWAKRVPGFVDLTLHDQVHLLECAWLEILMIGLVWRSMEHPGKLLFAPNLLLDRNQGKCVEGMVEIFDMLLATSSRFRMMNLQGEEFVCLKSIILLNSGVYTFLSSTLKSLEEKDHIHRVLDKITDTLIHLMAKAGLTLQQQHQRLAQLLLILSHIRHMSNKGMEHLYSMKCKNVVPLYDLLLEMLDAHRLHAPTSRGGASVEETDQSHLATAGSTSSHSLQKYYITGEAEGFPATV
# T47D = test: Estrogenic activity in human ER expressing T47D cells assessed as stimulation of cell proliferation at 100 nM by MTT assay; format: functional, cell-based
# [5] = Cmax in Wistar rat at 10 mg/kg, po by cassette dosing; format: ADME, organism-based; parameters: dose 10 mg/kg, route oral; conditions: in vivo
# [6] = Half life in Wistar rat at 10 mg/kg, po by cassette dosing; format: ADME, organism-based; parameters: dose 10 mg/kg, route oral; conditions: in vivo, read-out: beta t1/2 (converted)
# Rattus norvegicus [7] = test: Clast in Wistar rat at 10 mg/kg, po by cassette dosing; format: ADME, organism-based; parameters: dose 10 mg/kg, route oral; conditions: in vivo
# Rattus norvegicus [8] = test: Tlast in Wistar rat at 10 mg/kg, po by cassette dosing; format: ADME, organism-based; parameters: dose 10 mg/kg, route oral; conditions: in vivo
# [9] = Tmax in Wistar rat at 10 mg/kg, po by cassette dosing; format: ADME, organism-based; parameters: dose 10 mg/kg, route oral; conditions: in vivo
# in vitro [10] = conditions: human, Caco-2
# Description: Apparent permeability across human Caco-2 cells at 50 uM
# Rattus norvegicus [11] = test: AUC (0 to Tlast) life in Wistar rat at 10 mg/kg, po by cassette dosing; format: ADME, organism-based, Plasma; parameters: dose 10 mg/kg, route oral; conditions: in vivo
# Cytochrome P450 1A2 = target: T4, Cytochrome P450 1A2 (Homo sapiens, UniProt P05177); test: Inhibition of human hepatic CYP1A2; format: ADME
# T4 sequence (P05177 whole entry): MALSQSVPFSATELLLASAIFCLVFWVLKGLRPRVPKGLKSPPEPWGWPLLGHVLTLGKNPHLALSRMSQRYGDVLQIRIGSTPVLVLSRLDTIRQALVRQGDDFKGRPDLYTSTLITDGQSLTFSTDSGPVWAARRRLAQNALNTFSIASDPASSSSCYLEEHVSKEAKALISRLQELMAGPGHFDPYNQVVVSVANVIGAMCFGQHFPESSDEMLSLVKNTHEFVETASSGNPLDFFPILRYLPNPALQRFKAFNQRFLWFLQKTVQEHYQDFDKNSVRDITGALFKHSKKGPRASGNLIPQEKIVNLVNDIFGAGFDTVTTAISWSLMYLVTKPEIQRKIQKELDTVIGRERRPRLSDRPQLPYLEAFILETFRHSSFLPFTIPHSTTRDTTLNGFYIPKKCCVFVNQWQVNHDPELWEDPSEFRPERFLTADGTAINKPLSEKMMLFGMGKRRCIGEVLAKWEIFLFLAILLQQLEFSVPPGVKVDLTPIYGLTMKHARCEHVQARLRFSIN
# Cytochrome P450 3A4 = Cytochrome P450 3A4 (Homo sapiens, UniProt P08684); test: Inhibition of human hepatic CYP3A4
# Sequence of Cytochrome P450 3A4 (P08684 whole entry): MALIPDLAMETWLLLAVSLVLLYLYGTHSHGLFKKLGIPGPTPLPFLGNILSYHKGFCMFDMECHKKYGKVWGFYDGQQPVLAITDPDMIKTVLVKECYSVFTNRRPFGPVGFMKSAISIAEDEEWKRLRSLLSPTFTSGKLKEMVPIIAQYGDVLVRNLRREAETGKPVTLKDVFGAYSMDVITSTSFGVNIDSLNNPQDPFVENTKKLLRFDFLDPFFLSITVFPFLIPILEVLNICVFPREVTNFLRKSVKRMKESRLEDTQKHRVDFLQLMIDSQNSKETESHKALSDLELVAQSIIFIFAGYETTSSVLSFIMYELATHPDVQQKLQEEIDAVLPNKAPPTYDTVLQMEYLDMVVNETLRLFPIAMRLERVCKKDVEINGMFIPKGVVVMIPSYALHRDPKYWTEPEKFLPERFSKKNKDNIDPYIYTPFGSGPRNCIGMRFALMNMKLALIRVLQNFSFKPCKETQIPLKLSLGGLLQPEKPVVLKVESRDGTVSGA
# in vitro [12] = conditions: Sprague-Dawley, rat, liver microsomes
# in vitro [13] = conditions: Sprague-Dawley, rat, liver microsomes; remark: listed apart in the source
# Cytochrome P450 2D6 = Cytochrome P450 2D6 (Homo sapiens, UniProt P10635); test: Inhibition of human hepatic CYP2D6; format: ADME
# Sequence of Cytochrome P450 2D6 (P10635 whole entry): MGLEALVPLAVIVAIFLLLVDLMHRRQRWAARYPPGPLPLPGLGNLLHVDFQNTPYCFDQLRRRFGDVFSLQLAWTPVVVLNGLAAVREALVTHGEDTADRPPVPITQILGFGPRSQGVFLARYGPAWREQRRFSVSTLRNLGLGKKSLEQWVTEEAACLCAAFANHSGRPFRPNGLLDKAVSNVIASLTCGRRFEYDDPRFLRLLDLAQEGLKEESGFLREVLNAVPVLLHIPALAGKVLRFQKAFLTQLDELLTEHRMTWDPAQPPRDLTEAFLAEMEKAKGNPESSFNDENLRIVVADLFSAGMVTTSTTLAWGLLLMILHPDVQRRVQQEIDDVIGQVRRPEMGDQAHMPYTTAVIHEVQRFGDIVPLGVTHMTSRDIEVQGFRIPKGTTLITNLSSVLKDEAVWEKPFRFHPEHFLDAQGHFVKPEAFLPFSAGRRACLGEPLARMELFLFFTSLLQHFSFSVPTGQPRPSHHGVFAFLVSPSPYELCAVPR
# Cytochrome P450 2C19 = Cytochrome P450 2C19 (Homo sapiens, UniProt P33261); test: Inhibition of human hepatic CYP2C19; format: ADME
# Sequence of Cytochrome P450 2C19 (P33261 whole entry): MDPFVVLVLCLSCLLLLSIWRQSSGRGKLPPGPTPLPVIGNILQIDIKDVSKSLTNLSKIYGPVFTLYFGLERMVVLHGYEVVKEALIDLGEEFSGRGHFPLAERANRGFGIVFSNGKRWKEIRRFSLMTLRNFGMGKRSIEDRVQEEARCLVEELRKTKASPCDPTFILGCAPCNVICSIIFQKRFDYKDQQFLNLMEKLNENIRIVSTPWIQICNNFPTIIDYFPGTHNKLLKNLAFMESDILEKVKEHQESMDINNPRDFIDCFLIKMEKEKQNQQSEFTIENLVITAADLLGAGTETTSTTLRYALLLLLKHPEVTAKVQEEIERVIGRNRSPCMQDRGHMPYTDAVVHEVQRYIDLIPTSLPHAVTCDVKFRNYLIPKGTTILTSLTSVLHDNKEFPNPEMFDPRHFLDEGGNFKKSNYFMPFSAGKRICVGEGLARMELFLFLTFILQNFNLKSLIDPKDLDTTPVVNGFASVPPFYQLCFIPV
# Cytochrome P450 2B6 = target: T5, Cytochrome P450 2B6 (Homo sapiens, UniProt P20813); test: Inhibition of human hepatic CYP2B6; format: ADME
# T5 sequence (P20813 whole entry): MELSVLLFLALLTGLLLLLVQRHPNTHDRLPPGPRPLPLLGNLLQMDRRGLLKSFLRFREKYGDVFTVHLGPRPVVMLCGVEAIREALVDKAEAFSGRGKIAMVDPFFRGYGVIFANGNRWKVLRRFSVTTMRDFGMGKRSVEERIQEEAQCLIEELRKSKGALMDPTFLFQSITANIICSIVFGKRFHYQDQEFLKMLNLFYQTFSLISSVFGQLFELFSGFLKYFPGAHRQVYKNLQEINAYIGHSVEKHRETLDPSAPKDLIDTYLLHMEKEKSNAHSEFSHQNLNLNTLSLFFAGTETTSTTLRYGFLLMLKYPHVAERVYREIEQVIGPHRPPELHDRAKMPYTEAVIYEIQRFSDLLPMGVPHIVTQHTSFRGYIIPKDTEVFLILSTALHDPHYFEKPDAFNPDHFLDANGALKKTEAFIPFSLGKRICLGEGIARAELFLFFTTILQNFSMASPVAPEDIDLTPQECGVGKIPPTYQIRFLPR
compound,measurement,setting,value
Cn1nc(-c2ccc(O)cc2)nc1-c1cccc(O)c1,Activity,[1],inactive
Oc1cccc(-c2nnc(-c3cccc(O)c3)s2)c1,IC50,[2],336 nM
Oc1ccc(-c2cnc(-c3ccc(O)cc3)s2)cc1,Activity,[1],inactive
Cn1nc(-c2ccc(O)cc2)nc1-c1ccc(O)cc1,Activity,[1],inactive
Oc1ccc(-c2cccc(-c3cccc(O)c3)c2)cc1,IC50,[2],> 1000 nM
Oc1cccc(-c2ccc(-c3cccc(O)c3)nc2)c1,RBA,[3],< 0.01%
same,RBA,[4],0.01%
Oc1ccc(-c2ccc(-c3cccc(O)c3)cc2)cc1,IC50,[2],471 nM
same,Activity,T47D,inactive
Oc1ccc(-c2cnc(-c3cccc(O)c3)[nH]2)cc1,Activity,[1],inactive
Oc1ccc(-c2ncc(-c3cccc(O)c3)s2)cc1,IC50,[2],> 1000 nM
Oc1cccc(-c2nsc(-c3cccc(O)c3)n2)c1,IC50,[2],169 nM
Oc1ccc(-c2ccsc2-c2cccc(O)c2)cc1,IC50,[2],> 1000 nM
Oc1ccc(-c2cnc(-c3cccc(O)c3)s2)cc1,RBA,[3],0.01%
same,Cmax,[5],7.8 ng/mL
same,half-life,[6],1.5 h
same,Cz,Rattus norvegicus [7],6.6 ng/mL
same,tz,Rattus norvegicus [8],10 h
same,RBA,[4],< 0.01%
same,Tmax,[9],8 h
same,Papp at 50 µM,in vitro [10],7.8 ×10⁻⁶ cm/s
same,AUC,Rattus norvegicus [11],99.2 ng·h/mL
Oc1ccc(-c2ccc(-c3cccc(O)c3)s2)cc1,IC50,[2],69 nM
same,Activity,T47D,inactive
same,Papp at 50 µM,in vitro [10],22 ×10⁻⁶ cm/s
Oc1cccc(-c2cc(-c3ccccc3)cs2)c1,IC50,[2],> 5000 nM
Oc1cccc(-c2cn(-c3cccc(O)c3)nn2)c1,IC50,[2],> 5000 nM
Oc1ccc(-c2csc(-c3cccc(O)c3)c2)cc1,IC50,[2],77 nM
same,RBA,[3],0.1%
same,RBA,[4],0.01%
Oc1ccc(-c2csc(-c3cccc(O)c3)n2)cc1,IC50,[2],> 1000 nM
Oc1ccc(-c2cc(-c3cccc(O)c3)cs2)cc1,IC50,Cytochrome P450 1A2,> 4000 nM
same,IC50,[2],151 nM
same,RBA,[3],0.1%
same,IC50,Cytochrome P450 3A4,1900 nM
same,Activity,T47D,inactive
same,RBA,[4],0.01%
same,half-life at 1 µM,in vitro [12],0.31 h
same,microsomal CLint at 1 µM,in vitro [13],248 µL/min/mg
same,IC50,Cytochrome P450 2D6,> 4000 nM
same,IC50,Cytochrome P450 2C19,> 4000 nM
same,IC50,Cytochrome P450 2B6,> 4000 nM
same,Papp at 50 µM,in vitro [10],14.4 ×10⁻⁶ cm/s
Oc1cccc(-c2ccc(-c3cccc(O)c3)[se]2)c1,Activity,[1],inactive
Oc1cccc(-c2nnc(-c3cccc(O)c3)nn2)c1,Cmax,[5],106 ng/mL
same,half-life,[6],1.2 h
same,Cz,Rattus norvegicus [7],54 ng/mL
same,tz,Rattus norvegicus [8],10 h
same,Tmax,[9],3 h
same,AUC,Rattus norvegicus [11],1200 ng·h/mL
Oc1cccc(-c2ccc(-c3cccc(O)c3)s2)c1,IC50,[2],173 nM
Oc1ccc(-c2ccc(-c3ccccc3)s2)cc1,Activity,[1],inactive
c1ccc(-c2ccc(-c3ccccc3)s2)cc1,Activity,[1],inactive
Oc1ccc(-c2ccc(-c3ccc(O)cc3)[se]2)cc1,Activity,[1],inactive
Cn1nc(-c2cccc(O)c2)nc1-c1cccc(O)c1,Activity,[1],inactive
Oc1ccc(-c2nsc(-c3cccc(O)c3)n2)cc1,IC50,[2],413 nM
same,Activity,T47D,inactive
Oc1ccc(-c2ccsc2-c2ccc(O)cc2)cc1,Activity,[1],inactive
Oc1cccc(-c2csc(-c3cccc(O)c3)n2)c1,IC50,[2],455 nM
Oc1ccc(-c2csc(-c3ccc(O)cc3)n2)cc1,Activity,[1],inactive
Oc1cccc(-c2cnc(-c3cccc(O)c3)s2)c1,IC50,Cytochrome P450 1A2,> 4000 nM
same,IC50,[2],243 nM
same,Activity,T47D,inactive
same,half-life at 1 µM,in vitro [12],0.21 h
same,microsomal CLint at 1 µM,in vitro [13],367 µL/min/mg
same,IC50,Cytochrome P450 2D6,> 4000 nM
same,IC50,Cytochrome P450 2C19,> 4000 nM
same,IC50,Cytochrome P450 2B6,> 4000 nM
Oc1ccc(-c2nc(-c3cccc(O)c3)cs2)cc1,IC50,[2],> 5000 nM
Oc1ccc(-c2cccc(-c3ccc(O)cc3)c2)cc1,IC50,[2],> 1000 nM
Oc1ccc(-c2ccc(-c3ccc(O)cc3)s2)cc1,Activity,[1],inactive
Oc1cccc(-c2csc(-c3cccc(O)c3)c2)c1,IC50,[2],185 nM
Oc1cccc(-c2cccs2)c1,Activity,[1],inactive
Oc1ccc(-c2csc(-c3ccc(O)cc3)c2)cc1,Activity,[1],inactive
Cn1nc(-c2cccc(O)c2)nc1-c1ccc(O)cc1,Activity,[1],inactive
